Reference: patent US9693997B2, “Antiviral compounds” (priority 2013, dated 2017)

Legend:
Assay in all cases: microbe, parasite or virus in culture
[1] = tested on: pseudotyped VSV G particles (VSVpp) in Huh7-high CD81 cells; format: cell-based, vesicular stomatitis virus; conditions: Vesicular stomatitis virus, 72 h, read-out: VSVpp (EC50, μM)
[2] = tested on: Pseudotyped HCV GT1b particles (HCVpp), entry into Huh7-high CD81 cells; format: cell-based, HCV GT1b Con1 strain; conditions: Hepatitis C virus, GT1B, 72 h, read-out: HCVpp GT-1b (EC50, μM)
[3] = tested on: Pseudotyped HCV GT1a particles (HCVpp), entry into Huh7-high CD81 cells; format: cell-based, HCV GT1a H77 strain; conditions: Hepatitis C virus, 72 h, read-out: HCVpp GT-1a (EC50, μM)

`Nc1nc(Nc2cc(Cl)c(-c3ccc(S(=O)(=O)N[C@H]4C[C@H](O)C4)cc3)c(C(F)(F)F)c2)n[nH]1` [Compound 173, 4′-(5-amino-1H-1,2,4-triazol-3-ylamino)-2′-chloro-N-(trans-3-hydroxycyclobutyl)-6′-(trifluoromethyl)biphenyl-4-sulfonamide] was tested, and the EC50 [1] was over 10 µM, the EC50 [2] was 0.019 µM and the EC50 [3] was 0.007 µM.

`CC(C)S(=O)(=O)c1ccc(-c2c(Cl)cc(Nc3n[nH]c(N)n3)cc2Cl)cc1` [Compound 122, N-3-[2,6-Dichloro-4′-(propane-2-sulfonyl)-biphenyl-4-yl]-1H-[1,2,4]triazole-3,5-diamine] showed an EC50 [1] of 12.1 µM, an EC50 [2] of 0.024 µM and an EC50 [3] of 0.004 µM.

For `Nc1nc(Nc2cc(Cl)c(-c3ccccc3Cl)c(Cl)c2)n[nH]1` [Compound 101, N-3-(2,6,2′-Trichloro-biphenyl-4-yl)-1H-[1,2,4]triazole-3,5-diamine], the EC50 [1] was 13.2 µM, the EC50 [2] was 0.514 µM and the EC50 [3] was 0.037 µM.
